Reference: US11413278B2, “Compounds and methods for promoting stress resistance” (priority 2015, dated 2022)
Where two headings read alike, the source gives them in different places.

How the values were obtained:
Type in all cases: cell-based, human
[1] = test system: LC3A/B puncta; assay: Autophagy induction analysis (LC3A/B puncta immuno-staining)
Method in brief: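 Read-out is LC3A/B puncta intensity per DAPI-positive nucleus, either total puncta (Exp. 1) or puncta colocalizing with LAMP2 lysosomes (Exp. 2). Cells were WI-38, exposed to compounds for 24 hrs before antibody staining overnight at 4° C and automated imaging.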

[2] = test system: FOXO3; assay: qPCR analysis of FOXO3-regulated genes; settings: for fold induction at 10 µM: Homo sapiens; for K = Sestrin induction: score
Method in brief: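 FOXO3 target-gene expression quantified by qPCR normalised to B2M, PPIA and GAPDH, in WI-38 cells after 24 h exposure to 10 μM compound. Some runs used cells first transfected 36 h with 10 nM FOXO3 or NRF2 siRNA and replated ~24 h before dosing.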

[3] = test system: mTOR; assay: mTOR inhibition (RPS6 phosphorylation status), In-Cell Western
Method in brief: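 Read-out is In-Cell Western near-infrared imaging of phospho-RPS6 (Ser-235/236) against total RPS6, using overnight 4° C primary staining and DyLight 680/800 secondaries. Compounds were given to WI-38 cells for 24 hrs at three doses: 5, 10 and 20 μM.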

[4] = WI-38 cells, 10 μM, 24 hrs, n=4, qPCR normalized by B2M, read-out: DDB1 Normalized fold change
[5] = WI-38 cells, 10 μM, 24 hrs, n=4, qPCR normalized by B2M, read-out: GADD45A Normalized fold change
[6] = WI-38 cells, 10 μM, 24 hrs, n=4, qPCR normalized by B2M, read-out: SESN1 Normalized fold change
[7] = qPCR, WI-38 cells, 10 μM, n=4, 24 hrs, normalized by B2M, read-out: CAT Normalized fold change
[8] = qPCR, WI-38 cells, 10 μM, n=4, 24 hrs, normalized by B2M, read-out: SOD2 Normalized fold change
[9] = qPCR, WI-38 cells, 10 μM, n=4, 24 hrs, normalized by B2M, read-out: TXNIP Normalized fold change
[10] = 24 h, Assay 10(m), at 10 uM, qPCR, read-out: Induction of FOXO3-regulated genes: GADD45A normalized fold-change
[11] = 10 μM, 24 hrs, WI-38 cells, qPCR, normalized to B2M, n = 4, read-out: GADD45A expression, normalized fold change (FOXO3-regulated gene)
[12] = fold change, qPCR, WI-38 cells, 10 μM, 24 hrs, read-out: Summary of effects on FOXO3-regulated genes: GADD45A

| Compound | H = Potential Autophagy Induction ([1]; score) | H = Potential Autophagy Induction ([1]; summary score) | E = Potential FOXO3 Activation ([2]; 2-point score) | fold induction at 10 µM [2, 4] | fold induction at 10 µM [2, 5] | fold induction at 10 µM [2, 6] | fold induction at 10 µM [2, 7] | fold induction at 10 µM [2, 8] | fold induction at 10 µM [2, 9] | K = Sestrin induction [2] | E = Potential FOXO3 Activation ([2]; summary score) | G = mTOR down-regulation ([3]; 2-point score) | G = mTOR down-regulation ([3]; summary score) | fold induction at 10 µM [2, 10] | fold induction at 10 µM [2, 11] | fold induction at 10 µM [2, 12] | other results |
| --- | --- | --- | --- | --- | --- | --- | --- | --- | --- | --- | --- | --- | --- | --- | --- | --- | --- |
| COc1ccc(/C=C2\SC(=N)N(c3nccs3)C2=O)cc1 [O21] | 0 | 0 | 0 | 1.45 | 2.06 | 1.88 | 1.3 | 1.12 | 0.9 | 1 | 0 | 0 | 0 |  |  |  | fold induction at 10 µM ([2]; 24 h, Assay 10(m), at 10 uM, qPCR, read-out: Induction of FOXO3-regulated genes: SESN1 normalized fold-change): 1.88; fold induction at 10 µM ([2]; WI-38, 24 h, read-out: SESN1 expression): > 1.5; fold induction at 10 µM ([2]; 10 μM, 24 hrs, WI-38 cells, qPCR, normalized to B2M, n = 4, read-out: SESN1 expression, normalized fold change (FOXO3-regulated gene)): 1.88; fold induction at 10 µM ([2]; fold change, qPCR, WI-38 cells, 10 μM, 24 hrs, read-out: Summary of effects on FOXO3-regulated genes: SESN1): 1.88 |
| CC1C(=O)C(C)C(c2cc(Cl)ccc2O)NC1c1cc(Cl)ccc1O (stereo not shown) [O6] | 0 | 0 | 0 | 0.988 | 0.881 | 1.06 | 0.919 | 0.932 | 1.01 | 0 | 0 | 0 | 0 |  |  |  |  |
| CCCC(=O)Nc1ccc(-c2cn3cccc(C)c3n2)cc1 [O12] | 0 | 0 | 2 | 1.02 | 1.69 | 1.05 | 0.802 | 1.52 | 0.909 | 0 | 0 | 0 | 0 | 1.44 | 1.69 | 1.69 | Induction of at least two of five FOXO3-regulated genes (SOD2, GADD45A, CAT, DDB1, TXNIP) ([2]; 10 μM, 24 hrs, WI-38): significant induction; SOD2 expression, normalized fold change (FOXO3-regulated gene) ([2]; 10 μM, 24 hrs, WI-38 cells, qPCR, normalized to B2M, n = 4): SOD2 1.52, fold; fold induction at 10 µM ([2]; 24 h, Assay 10(m), at 10 uM, qPCR, read-out: Induction of FOXO3-regulated genes: CAT normalized fold-change): 0.82; fold induction at 10 µM ([2]; 24 h, Assay 10(m), at 10 uM, qPCR, read-out: Induction of FOXO3-regulated genes: DDB1 normalized fold-change): 0.86; fold induction at 10 µM ([2]; 24 h, Assay 10(m), at 10 uM, qPCR, read-out: Induction of FOXO3-regulated genes: SOD2 normalized fold-change): 1.35; fold induction at 10 µM ([2]; 10 μM, 24 hrs, WI-38 cells, qPCR, normalized to B2M, n = 4, read-out: CAT expression, normalized fold change (FOXO3-regulated gene)): 0.8; fold induction at 10 µM ([2]; fold change, qPCR, WI-38 cells, 10 μM, 24 hrs, read-out: Summary of effects on FOXO3-regulated genes: CAT): 0.8; Summary of effects on FOXO3-regulated genes: SOD2 ([2]; fold change, qPCR, WI-38 cells, 10 μM, 24 hrs): SOD2 1.52, |
| [O-][n+]1onc2c3nsnc3c(Br)cc21 [O17] | 0 | 0 | 0 | 1.04 | 0.846 | 1.11 | 1.11 | 0.997 | 0.801 | 0 | 0 | 0 | 0 | 0.85 | 0.85 | 0.85 |  |
